This is an account of results in ChEMBL document CHEMBL6127139, “Lysine-Targeted Covalent Inhibitors of PI3Kδ Synthesis and Screening by In Situ Interaction Upgradation” (J Med Chem, 2024).

The structures appear in SMILES notation. Calls of active or inactive are those of the source. The rule behind the calls is not given here.

Series [1] is described as follows: Stability of compound in PBS at pH 7.4 incubated for 24 hrs at 37 degreeC by HPLC analysis. Format: physicochemical. The note with it: buffer, pH 7.4, 24 h.
Series [2] relates to SU-DHL-6. The series is described as follows: Antiproliferative activity against human SU-DHL-6 cells assessed as inhibition of cell viability preincubated for 12 hrs followed by compound washout and measured after 60 hrs by MTT assay. The series is classed as functional, cell-based. A general note: Tetrazolium dyes change colour on reduction, which living cells bring about.

In series [3] the test system is SU-DHL-6. The series can be described thus: Irreversible inhibition of AKT phosphorylation in human SU-DHL-6 cells preincubated for 12 hrs followed by compound washout and measured upto 72 hrs by Western blot analysis. The series is classed as cell-based. In general terms: A western blot detects proteins with antibodies after separation by electrophoresis.
For series [4], the system named is SU-DHL-6. The series can be described thus: Antitumor activity against human SU-DHL-6 cells xenografted in male nude mouse assessed as tumor growth inhibition at 5 mg/kg/day, po administered for 14 days relative to control. Format: functional. The note with it: SU-DHL-6, 336 h, time 14 day, read-out: TGI. On the technique in general: A xenograft is tissue or cells of one species grown in another, often human tumour cells in immunodeficient mice.

The subject of another series is Pfeiffer. The series can be described thus: Antitumor activity against human Pfeiffer cells xenografted in male nude mouse assessed as tumor growth inhibition at 30 mg/kg/day, po administered for 14 days relative to control. As to conditions: 336 h, time 14 day, read-out: TGI. The series is classed as functional.
The nature of series [5]: Toxicity in male nude mouse xenografted with human Pfeiffer cells assessed as change in body weight at 5 to 30 mg/kg/day, po administered for 14 days. The series is classed as organism-based. The note with it: in vivo, 336 h, dose 5-30 mg/kg/day, time 14 day.

Consider `COc1ncc(-c2ccc3ncnc(N[C@H]4CCN(C(=O)C5CCOCC5)C4)c3n2)cc1C(=O)Oc1ccccc1`, for which the Stability result in series [1] is “Stable”. In the series with SU-DHL-6 [2], the result was Active. In addition, the inhibition result with SU-DHL-6 [3] is “Active”. The inhibition in vivo at 5 mg/kg/day in the series with SU-DHL-6 [4] amounted to 84%. Further, the inhibition in vivo at 30 mg/kg/day in the series with Pfeiffer was determined as 61%. In series [5], the Activity result was “Non-Toxic”.
